# Experimental data from patent US11154544B2, “Amide derivatives as Nav1.7 and Nav1.8 blockers” (RaQualia Pharma Inc., priority 2017, dated 2021).
# Biological target: Nav1.7 (Homo sapiens (Human), UniProt Q15858)
# Test: EFS-FRET assay
# Format: cell-based
# Details: EFS-FRET, CHO cells expressing human Nav1.7; read-out: IC50 against Nav1.7
# Method: This screen is used to determine the effects of compounds on human Nav1.7 channels, utilizing electrical field stimulation (EFS) system in 96-well plate format on FDSS (Hamamatsu Photonics) platform. The change of membrane potential is monitored with FRET dye pair, DiSBAC2(3) and PTS 18.
# CHO (Chinese hamster ovary) cells expressing human Nav1.7 channels are grown in T225 flasks, in a 5% CO2 humidified incubator to about 80% confluence. Media composition consists of HAM/F^.12 with Glutamax I, 10% FCS, 100 units/mL penicillin and 100 microgram/mL hygromycin.
# Seed each cell lines (1×10^5 cells/well) into 96-well plates prior to experimentation.
# Incubate at 37° C. in 5% CO2, for 24 hours.
# Wash each well with assay buffer (140 mM NaCl, […], 10 mM D-Glucose, 2 mM CaCl2, 1 mM MgCl2, 10 mM HEPES, pH 7.4 adjusted with NaOH) twice.
# Add 1st loading solution containing 10 microM PTS18 and 0.06% Pluronic F-127 in assay buffer.
# Incubate the plate at rt in dark for 1 hour. • Remove 1st loading solution and add 2nd loading solution containing 12.5 microM DiSBAC2(3), 1.25 mM Xylene Fast Yellow and 0.0075% Pluronic F-127 in assay buffer. • Place the plate under the dark at rt for 25 minutes. • Add compound solutions into the assay plate. • Set the assay plate in FDSS and place an EFS device on the plate. • Measure EFS-induced fluorescent response by FDSS.
# The data are analyzed and reported as normalized ratios of intensities measured at […]. The process of calculating these ratios is performed as follows:
# This analysis is performed using a computerized specific program designed for
# FDSS generated data. Fluorescence ratio values are plotted using XLfit to determine an IC50 value for each, compound.
# Nav1.7, sequence (Q15858 whole entry): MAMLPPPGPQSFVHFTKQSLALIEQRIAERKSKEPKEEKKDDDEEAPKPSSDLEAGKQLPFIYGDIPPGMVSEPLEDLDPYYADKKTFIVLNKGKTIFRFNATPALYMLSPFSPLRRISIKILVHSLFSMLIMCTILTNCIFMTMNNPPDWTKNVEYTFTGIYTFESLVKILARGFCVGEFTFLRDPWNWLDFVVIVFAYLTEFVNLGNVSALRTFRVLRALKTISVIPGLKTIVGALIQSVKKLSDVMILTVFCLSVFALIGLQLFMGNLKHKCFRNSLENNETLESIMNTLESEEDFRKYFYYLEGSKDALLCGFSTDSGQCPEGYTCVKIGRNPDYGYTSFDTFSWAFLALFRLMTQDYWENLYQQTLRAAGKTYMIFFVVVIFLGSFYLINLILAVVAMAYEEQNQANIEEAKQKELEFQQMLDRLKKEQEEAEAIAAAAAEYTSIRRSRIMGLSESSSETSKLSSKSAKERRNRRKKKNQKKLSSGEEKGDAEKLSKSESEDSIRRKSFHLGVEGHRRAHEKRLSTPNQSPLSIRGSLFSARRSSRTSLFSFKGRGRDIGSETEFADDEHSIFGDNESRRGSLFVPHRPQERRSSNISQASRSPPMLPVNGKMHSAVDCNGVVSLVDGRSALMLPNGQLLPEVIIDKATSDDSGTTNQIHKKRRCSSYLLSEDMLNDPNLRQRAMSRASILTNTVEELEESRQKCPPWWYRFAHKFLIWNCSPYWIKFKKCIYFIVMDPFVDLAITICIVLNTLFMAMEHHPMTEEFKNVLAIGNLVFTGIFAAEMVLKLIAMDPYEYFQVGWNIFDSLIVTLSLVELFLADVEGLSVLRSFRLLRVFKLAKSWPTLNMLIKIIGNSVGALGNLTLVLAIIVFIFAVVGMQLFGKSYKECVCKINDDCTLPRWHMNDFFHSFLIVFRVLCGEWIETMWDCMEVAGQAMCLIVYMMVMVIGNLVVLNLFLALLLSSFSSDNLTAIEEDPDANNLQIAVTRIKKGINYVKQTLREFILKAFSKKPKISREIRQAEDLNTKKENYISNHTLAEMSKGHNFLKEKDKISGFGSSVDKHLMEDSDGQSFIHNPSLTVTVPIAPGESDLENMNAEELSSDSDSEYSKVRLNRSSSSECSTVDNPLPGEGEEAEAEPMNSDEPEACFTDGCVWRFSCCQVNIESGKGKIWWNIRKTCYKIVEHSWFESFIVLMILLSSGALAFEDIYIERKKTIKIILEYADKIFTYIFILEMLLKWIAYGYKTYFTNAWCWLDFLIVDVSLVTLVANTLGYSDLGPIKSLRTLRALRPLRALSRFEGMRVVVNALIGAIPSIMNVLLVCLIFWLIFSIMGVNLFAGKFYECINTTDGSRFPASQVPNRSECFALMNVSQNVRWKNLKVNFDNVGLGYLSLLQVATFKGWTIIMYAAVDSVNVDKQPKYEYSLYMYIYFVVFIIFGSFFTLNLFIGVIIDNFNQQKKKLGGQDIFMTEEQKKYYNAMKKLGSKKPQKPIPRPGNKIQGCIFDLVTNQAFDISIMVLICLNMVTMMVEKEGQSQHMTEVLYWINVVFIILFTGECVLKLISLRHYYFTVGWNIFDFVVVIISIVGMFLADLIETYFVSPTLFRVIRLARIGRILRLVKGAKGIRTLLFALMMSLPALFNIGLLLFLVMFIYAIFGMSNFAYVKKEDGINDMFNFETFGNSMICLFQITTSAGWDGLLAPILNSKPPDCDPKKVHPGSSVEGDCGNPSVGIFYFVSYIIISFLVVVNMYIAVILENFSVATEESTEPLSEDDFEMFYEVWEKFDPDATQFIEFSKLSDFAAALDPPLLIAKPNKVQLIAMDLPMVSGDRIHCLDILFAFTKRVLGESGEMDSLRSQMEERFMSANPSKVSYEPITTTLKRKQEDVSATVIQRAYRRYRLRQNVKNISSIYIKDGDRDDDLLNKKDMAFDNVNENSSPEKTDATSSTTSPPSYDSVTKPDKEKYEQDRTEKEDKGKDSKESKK
row,SMILES,IC50
1,CC(=O)Nc1cc(C(=O)NCCNc2ncc(C(F)(F)F)cc2Cl)ccn1 [Example 2],< 500 nM
2,O=C(NCCNc1ncc(C(F)(F)F)cc1Cl)c1ccnc(NC(=O)C2CC2)c1 [Example 6],< 500 nM
3,CC(C)C(=O)Nc1cc(C(=O)NCCNc2ncc(C(F)(F)F)cc2Cl)ccn1 [Example 7],< 500 nM
4,CCC(=O)Nc1cc(C(=O)NCCOc2ncc(C(F)(F)F)cc2Cl)ccn1 [Example 9],< 500 nM
5,O=C(NCCOc1ncc(C(F)(F)F)cc1Cl)c1ccnc(NC(=O)C2CC2)c1 [Example 14],< 500 nM
6,Cc1cc(C(=O)NCCOc2ncc(C(F)(F)F)cc2Cl)nc(NC(=O)C2CC2)n1 [Example 16],< 500 nM
7,CC(=O)Nc1cc(C(=O)NCCOc2cccc(OC(F)(F)F)c2)cc(C)n1 [Example 19],< 500 nM
8,CCC(=O)Nc1cc(C(=O)NCCOc2ccc(C(F)(F)F)cc2Cl)ccn1 [Example 21],< 500 nM
9,CC(C)C(=O)Nc1cc(C(=O)NCCOc2ccc(C(F)(F)F)cc2Cl)ccn1 [Example 22],< 500 nM
10,CCC(=O)Nc1cc(C(=O)NCCCc2ncc(C(F)(F)F)cc2Cl)ccn1 [Example 30],< 500 nM
11,CC(=O)Nc1cc(C(=O)NCCOc2ccc(S(F)(F)(F)(F)F)cc2)cc(C)n1 [Example 31],< 500 nM
12,CCC(=O)Nc1cc(C(=O)NCCOc2ccc(S(F)(F)(F)(F)F)cc2)ccn1 [Example 32],< 500 nM
13,O=C(NCCOc1ccc(S(F)(F)(F)(F)F)cc1)c1ccnc(NC(=O)C2CC2)c1 [Example 33],< 500 nM
14,CC(C)C(=O)Nc1cc(C(=O)NCCOc2ccc(S(F)(F)(F)(F)F)cc2)ccn1 [Example 34],< 500 nM
15,O=C(NCCOc1ncc(C(F)(F)F)cc1Cl)c1ccnc(NC(=O)C2CC2)n1 [Example 36],< 500 nM
16,O=C(NCCNc1ncc(C(F)(F)F)cc1Cl)c1ccnc(NC(=O)C2CC2)n1 [Example 38],< 500 nM
17,O=C(NCCOc1ccc(C(F)(F)F)cc1Cl)c1ccnc(NC(=O)C2CC2)c1 [Example 40],< 500 nM
18,O=C(NCCOc1ccc(C(F)(F)F)cc1Cl)c1ccnc(NC(=O)C2CC2)n1 [Example 43],< 500 nM
19,CCC(=O)Nc1cc(C(=O)NCCOc2ccc3cc(C(F)(F)F)ccc3n2)cc(C)n1 [Example 44],< 500 nM
20,O=C(NCCOc1ccc2cc(C(F)(F)F)ccc2n1)c1ccnc(NC(=O)C2CC2)c1 [Example 45],< 500 nM
21,CC(C)C(=O)Nc1cc(C(=O)NCCOc2ccc3cc(C(F)(F)F)ccc3n2)ccn1 [Example 46],< 500 nM
22,CCC(=O)Nc1cc(C(=O)NCCOc2ccc3cc(OCC(F)(F)F)ccc3c2)cc(C)n1 [Example 49],< 500 nM
23,CC(=O)Nc1cc(C(=O)NCCOc2ccc3cc(C(F)(F)F)ccc3n2)ccn1 [Example 56],< 500 nM

row,SMILES,IC50
1,CCC(=O)Nc1cc(C(=O)NCCOc2ccc3cc(C(F)(F)F)ccc3n2)ccn1 [Example 57],< 500 nM
2,Cc1cc(C(=O)NCCOc2ccc3cc(C(F)(F)F)ccc3n2)cc(NC(=O)C2CC2)n1 [Example 59],< 500 nM
3,Cc1cc(C(=O)NCCOc2ccc3cc(C(F)(F)F)ccc3n2)cc(NC(=O)C(C)C)n1 [Example 60],< 500 nM
4,CCC(=O)Nc1cc(C(=O)N[C@H](C)COc2ncc(C(F)(F)F)cc2Cl)ccn1 [Example 64],< 500 nM
5,C[C@H](COc1ncc(C(F)(F)F)cc1Cl)NC(=O)c1ccnc(NC(=O)C2CC2)c1 [Example 67],< 500 nM
6,CC(C)C(=O)Nc1cc(C(=O)N[C@H](C)COc2ncc(C(F)(F)F)cc2Cl)ccn1 [Example 68],< 500 nM
7,C[C@H](COc1ncc(C(F)(F)F)cc1Cl)NC(=O)c1ccnc(NC(=O)C2CC2)n1 [Example 71],< 500 nM
8,CC(C)C(=O)Nc1cc(C(=O)NCCOc2ccnc3cc(C(F)(F)F)ccc23)ccn1 [Example 80],< 500 nM
9,CCCC(=O)Nc1cc(C(=O)NCCOc2ncc(C(F)(F)F)cc2Cl)ccn1 [Example 87],< 500 nM
10,CCC(=O)Nc1nc(C)cc(C(=O)NCCOc2ncc(C(F)(F)F)cc2Cl)n1 [Example 89],< 500 nM
11,CCC(=O)Nc1cc(C(=O)NCCOc2ccc(C(F)(F)F)cc2F)cc(C)n1 [Example 94],< 500 nM
12,CC(C)C(=O)Nc1cc(C(=O)NCCOc2ccc(C(F)(F)F)cc2F)ccn1 [Example 96],< 500 nM
13,Cc1cc(C(=O)NCCOc2ccc(C(F)(F)F)cc2F)cc(NC(=O)C2CC2)n1 [Example 97],< 500 nM
14,CCC(=O)Nc1cc(C(=O)NCCOc2ccc(OC(F)(F)F)cc2Cl)cc(C)n1 [Example 105],< 500 nM
15,O=C(NCCOc1ccc(OC(F)(F)F)cc1Cl)C1C=C(NC(=O)C2CC2)N=CC1 (stereo not shown) [Example 106],< 500 nM
16,CC(C)C(=O)Nc1cc(C(=O)NCCOc2ccc(OC(F)(F)F)cc2Cl)ccn1 [Example 107],< 500 nM
17,CC(=O)Nc1cc(C(=O)NCCOc2ccc(OC(F)(F)F)cc2Cl)ccn1 [Example 113],< 500 nM
18,CCC(=O)Nc1cc(C(=O)NCCOc2ccc(OC(F)(F)F)cc2Cl)ccn1 [Example 114],< 500 nM
19,Cc1cc(C(=O)NCCOc2ccc(OC(F)(F)F)cc2Cl)cc(NC(=O)C2CC2)n1 [Example 115],< 500 nM
20,O=C(NCCOc1ccc(OC(F)(F)F)cc1Cl)c1ccnc(NC(=O)C2CC2)c1 [Example 117],< 500 nM
21,CCC(=O)Nc1cc(C(=O)NCCCNc2ncc(C(F)(F)F)cc2Cl)ccn1 [Example 119],< 500 nM
22,COc1cc(C(F)(F)F)ccc1OCCNC(=O)c1ccnc(NC(C)=O)c1 [Example 126],< 500 nM

# Next, values leading:
row,IC50,SMILES
1,< 500 nM,CCC(=O)Nc1cc(C(=O)NCCNc2ncc(C(F)(F)F)cc2Cl)cc(C)n1 [Example 5]
2,< 500 nM,CC(=O)Nc1cc(C(=O)NCCOc2ncc(C(F)(F)F)cc2Cl)cc(C)n1 [Example 10]
3,< 500 nM,CCC(=O)Nc1cc(C(=O)NCCOc2ccc(C(F)(F)F)cn2)cc(C)n1 [Example 12]
4,< 500 nM,CCC(=O)Nc1cc(C(=O)NCCOc2ncc(C(F)(F)F)cc2Cl)cc(C)n1 [Example 15]
5,< 500 nM,CC(=O)Nc1cc(C(=O)NCCOc2ccc(C(F)(F)F)cc2Cl)cc(C)n1 [Example 23]
6,< 500 nM,Cc1cc(C(=O)NCCOc2ncc(C(F)(F)F)cc2Cl)cc(NC(=O)C2CC2)n1 [Example 25]
7,< 500 nM,Cc1cc(C(=O)NCCNc2ncc(C(F)(F)F)cc2Cl)cc(NC(=O)C2CC2)n1 [Example 26]
8,< 500 nM,CC(=O)Nc1cc(C(=O)NCCCc2ncc(C(F)(F)F)cc2Cl)cc(C)n1 [Example 28]
9,< 500 nM,Cc1cc(C(=O)NCCNc2ncc(C(F)(F)F)cc2Cl)cc(NC(=O)C(C)C)n1 [Example 37]
10,< 500 nM,CCC(=O)Nc1cc(C(=O)NCCOc2ccc(C(F)(F)F)cc2Cl)cc(C)n1 [Example 39]
11,< 500 nM,Cc1cc(C(=O)NCCOc2ccc(C(F)(F)F)cc2Cl)cc(NC(=O)C2CC2)n1 [Example 41]
12,< 500 nM,Cc1cc(C(=O)NCCOc2ccc(C(F)(F)F)cc2Cl)cc(NC(=O)C(C)C)n1 [Example 42]
13,< 500 nM,CC(=O)Nc1cc(C(=O)NCCSc2ncc(C(F)(F)F)cc2Cl)cc(C)n1 [Example 54]
14,< 500 nM,CC(=O)Nc1cc(C(=O)NCCOc2ccc3cc(C(F)(F)F)ccc3n2)cc(C)n1 [Example 58]
15,< 500 nM,CC(=O)Nc1cc(C(=O)N[C@H](C)COc2ncc(C(F)(F)F)cc2Cl)cc(C)n1 [Example 65]
16,< 500 nM,CCC(=O)Nc1cc(C(=O)N[C@H](C)COc2ncc(C(F)(F)F)cc2Cl)cc(C)n1 [Example 66]
17,< 500 nM,Cc1cc(C(=O)N[C@H](C)COc2ncc(C(F)(F)F)cc2Cl)cc(NC(=O)C2CC2)n1 [Example 69]
18,< 500 nM,Cc1cc(C(=O)N[C@H](C)COc2ncc(C(F)(F)F)cc2Cl)cc(NC(=O)C(C)C)n1 [Example 70]
19,< 500 nM,CC(=O)Nc1cc(C(=O)NC[C@@H](C)Oc2ncc(C(F)(F)F)cc2Cl)cc(C)n1 [Example 73]
20,< 500 nM,CCC(=O)Nc1cc(C(=O)NC[C@@H](C)Oc2ncc(C(F)(F)F)cc2Cl)cc(C)n1 [Example 74]
21,< 500 nM,Cc1cc(C(=O)NC[C@@H](C)Oc2ncc(C(F)(F)F)cc2Cl)cc(NC(=O)C2CC2)n1 [Example 76]
22,< 500 nM,Cc1cc(C(=O)NC[C@@H](C)Oc2ncc(C(F)(F)F)cc2Cl)cc(NC(=O)C(C)C)n1 [Example 77]
23,< 500 nM,Cc1cc(C(=O)NCCOc2ncc(C(F)(F)F)cc2Cl)nc(NC(=O)C(C)C)n1 [Example 90]
24,< 500 nM,CC(=O)Nc1cc(C(=O)NCCOc2ccc(C(F)(F)F)cc2F)cc(C)n1 [Example 93]
25,< 500 nM,Cc1cc(C(=O)NCCOc2ccc(C(F)(F)F)cc2F)cc(NC(=O)C(C)C)n1 [Example 98]
26,< 500 nM,Cc1cc(C(=O)NCCOc2ccc(OC(F)(F)F)cc2Cl)cc(NC(=O)C(C)C)n1 [Example 108]
27,< 500 nM,CC(=O)Nc1cc(C(=O)NCCOc2ccc(OC(F)(F)F)cc2Cl)cc(C)n1 [Example 116]
28,< 500 nM,CC(C)C(=O)Nc1cc(C(=O)NCCCOc2ncc(C(F)(F)F)cc2Cl)ccn1 [Example 123]
